Experimental data from the supplement of paper PMC11451515.

Test system: SEM cells
Assay: cell viability relative to DMSO control; higher = less cytotoxic
Settings: 48 h
How it was run: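 NOMO1 or SEM (500 cells/well) or P12-Ichikawa (1000 cells/well) leukemia cells were adapted for at least four passages in each medium. They were seeded in 1536-well plates (5 μl) and pin-dosed with library compounds in DMSO over an 11-point threefold series, 47 μM to 0.79 nM. CellTiter-Glo One luminescence was read after 48 h at 37°C. Viability is the per-plate percentage relative to DMSO wells, with cell-free wells as background.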

[1] = HPLM + 10% dialyzed FBS, 0.000781 µM
[2] = HPLM + 10% dialyzed FBS, 0.00234 µM
[3] = HPLM + 10% dialyzed FBS, 0.00702 µM
[4] = HPLM + 10% dialyzed FBS, 0.0211 µM
[5] = HPLM + 10% dialyzed FBS, 0.0632 µM
[6] = HPLM + 10% dialyzed FBS, 0.19 µM
[7] = HPLM + 10% dialyzed FBS, 0.569 µM
[8] = HPLM + 10% dialyzed FBS, 1.71 µM
[9] = HPLM + 10% dialyzed FBS, 5.12 µM
[10] = HPLM + 10% dialyzed FBS, 15.4 µM
[11] = HPLM + 10% dialyzed FBS, 46.1 µM
[12] = RPMI 5 mM glucose + 10% FBS, 0.000781 µM
[13] = RPMI 5 mM glucose + 10% FBS, 0.00234 µM
[14] = RPMI 5 mM glucose + 10% FBS, 0.00702 µM
[15] = RPMI 5 mM glucose + 10% FBS, 0.0211 µM
[16] = RPMI 5 mM glucose + 10% FBS, 0.0632 µM
[17] = RPMI 5 mM glucose + 10% FBS, 0.19 µM
[18] = RPMI 5 mM glucose + 10% FBS, 0.569 µM
[19] = RPMI 5 mM glucose + 10% FBS, 1.71 µM
[20] = RPMI 5 mM glucose + 10% FBS, 5.12 µM
[21] = RPMI 5 mM glucose + 10% FBS, 15.4 µM
[22] = RPMI 5 mM glucose + 10% FBS, 46.1 µM
[23] = RPMI 5 mM glucose + 10% dialyzed FBS, 0.000781 µM
[24] = RPMI 5 mM glucose + 10% dialyzed FBS, 0.00234 µM
[25] = RPMI 5 mM glucose + 10% dialyzed FBS, 0.00702 µM
[26] = RPMI 5 mM glucose + 10% dialyzed FBS, 0.0211 µM
[27] = RPMI 5 mM glucose + 10% dialyzed FBS, 0.0632 µM
[28] = RPMI 5 mM glucose + 10% dialyzed FBS, 0.19 µM
[29] = RPMI 5 mM glucose + 10% dialyzed FBS, 0.569 µM
[30] = RPMI 5 mM glucose + 10% dialyzed FBS, 1.71 µM
[31] = RPMI 5 mM glucose + 10% dialyzed FBS, 5.12 µM
[32] = RPMI 5 mM glucose + 10% dialyzed FBS, 15.4 µM
[33] = RPMI 5 mM glucose + 10% dialyzed FBS, 46.1 µM

Compound	cell viability [1] [%]	cell viability [2] [%]	cell viability [3] [%]	cell viability [4] [%]	cell viability [5] [%]	cell viability [6] [%]	cell viability [7] [%]	cell viability [8] [%]	cell viability [9] [%]	cell viability [10] [%]	cell viability [11] [%]	cell viability [12] [%]	cell viability [13] [%]	cell viability [14] [%]	cell viability [15] [%]	cell viability [16] [%]	cell viability [17] [%]	cell viability [18] [%]	cell viability [19] [%]	cell viability [20] [%]	cell viability [21] [%]	cell viability [22] [%]	cell viability [23] [%]	cell viability [24] [%]	cell viability [25] [%]	cell viability [26] [%]	cell viability [27] [%]	cell viability [28] [%]	cell viability [29] [%]	cell viability [30] [%]	cell viability [31] [%]	cell viability [32] [%]	cell viability [33] [%]
COc1ccc(-c2nc3cc(C4=NNC(=O)CC4C)ccc3[nH]2)cc1 (stereo not given)	86.8	90.5	99.6	107	109	106	98.7	101	111	92.5	75.4	92.2	95.2	105	102	112	121	111	120	101	119	90.8	93.6	91.6	111	110	113	110	107	120	110	115	84.4
C[C@H]1CCC/C=C/C2C[C@H](O)C[C@H]2[C@H](O)/C=C/C(=O)O1 (stereo not given in full)	15.7	31.7	17.9	5.79	5.21	5.3	5	4.73	2.72	2.09	2.38	11.4	54.4	44.6	9.33	5.67	6.09	5.62	4.83	3.32	3.06	2.16	4.97	29.4	23.6	5.2	4.1	3.92	3.96	3.5	2	1.85	1.45
CC(C)c1ccc2oc3nc(N)c(C(=O)O)cc3c(=O)c2c1	106	109	96.6	109	126	108	128	115	106	118	102	116	131	122	122	145	134	150	121	134	140	137	98	118	134	141	141	131	143	127	146	146	129
CNC(=O)c1cc(Oc2ccc(NC(=O)Nc3cc(C(C)(C)C)nn3-c3ccc4ncccc4c3)c(F)c2)ccn1	98.3	113	118	113	116	102	80.5	66.6	61.7	52.2	41.6	108	114	107	115	122	99.2	85.3	61.3	50.5	39.2	26.2											
NC/1=N/C(=O)N(/C=C1)[C@H]2CC[C@@H](CO)O2	78.3	95	93.8	103	101	104	109	121	103	23	72.2	71.7	88.8	103	92	88.3	101	93.4	96.1	110	17	80.1	68.7	87.4	94.3	94.3	102	88.1	88.6	98.4	78	17.2	53.4
O=P(O)(O)C(O)(Cc1cccnc1)P(=O)(O)[O][Na] (stereo not given)	83	67.3	100	21.8	102	111	104	108	111	107	116	89.6	51.7	91	14.2	95.7	100	90.3	96.8	110	100	112	96.1	52.9	92.7	22.1	121	116	113	102	118	108	123
CC1=C(C)C2=C(S1)[N]3C(=NN=C3[C@H](CC(=O)OC(C)(C)C)/N=C2/C4=CC=C(Cl)C=C4)C	98.5	115	107	105	104	43.2	11.3	17.7	6.74	4.33	1.71	100	108	106	102	103	67.7	13.7	18.7	7.27	4.94	1.39	108	103	102	78.7	94.7	53.9	17.5	15.8	5.05	3.64	1.14
